Measurements reported in publication PMC9570109, “Improved Trimethylangelicin Analogs for Cystic Fibrosis: Design, Synthesis and Preliminary Screening” (International Journal of Molecular Sciences, 2022).
Where two headings read alike, the source gives them in different places.

Experiments:
F508del CFTR [1] = target: T1, F508del CFTR (Homo sapiens, UniProt P13569, DEL508-508); test: F508del CFTR functional rescue (corrector) HS-YFP single-cell assay; format: cell-based; details: CFBE41o- YFP-F508del cells; for F508del CFTR rescue (corrector) activity: 48 h incubation, 200 nM
T1 construct: expressed in transfected cells; host or cells: CFBE41o- cells overexpressing F508del CFTR and HS-YFP (YFP-H148Q/I152L), a gift from N. Pedemonte, Gaslini Institute
T1 sequence (P13569 with tags, fused parts or gaps DEL508-508): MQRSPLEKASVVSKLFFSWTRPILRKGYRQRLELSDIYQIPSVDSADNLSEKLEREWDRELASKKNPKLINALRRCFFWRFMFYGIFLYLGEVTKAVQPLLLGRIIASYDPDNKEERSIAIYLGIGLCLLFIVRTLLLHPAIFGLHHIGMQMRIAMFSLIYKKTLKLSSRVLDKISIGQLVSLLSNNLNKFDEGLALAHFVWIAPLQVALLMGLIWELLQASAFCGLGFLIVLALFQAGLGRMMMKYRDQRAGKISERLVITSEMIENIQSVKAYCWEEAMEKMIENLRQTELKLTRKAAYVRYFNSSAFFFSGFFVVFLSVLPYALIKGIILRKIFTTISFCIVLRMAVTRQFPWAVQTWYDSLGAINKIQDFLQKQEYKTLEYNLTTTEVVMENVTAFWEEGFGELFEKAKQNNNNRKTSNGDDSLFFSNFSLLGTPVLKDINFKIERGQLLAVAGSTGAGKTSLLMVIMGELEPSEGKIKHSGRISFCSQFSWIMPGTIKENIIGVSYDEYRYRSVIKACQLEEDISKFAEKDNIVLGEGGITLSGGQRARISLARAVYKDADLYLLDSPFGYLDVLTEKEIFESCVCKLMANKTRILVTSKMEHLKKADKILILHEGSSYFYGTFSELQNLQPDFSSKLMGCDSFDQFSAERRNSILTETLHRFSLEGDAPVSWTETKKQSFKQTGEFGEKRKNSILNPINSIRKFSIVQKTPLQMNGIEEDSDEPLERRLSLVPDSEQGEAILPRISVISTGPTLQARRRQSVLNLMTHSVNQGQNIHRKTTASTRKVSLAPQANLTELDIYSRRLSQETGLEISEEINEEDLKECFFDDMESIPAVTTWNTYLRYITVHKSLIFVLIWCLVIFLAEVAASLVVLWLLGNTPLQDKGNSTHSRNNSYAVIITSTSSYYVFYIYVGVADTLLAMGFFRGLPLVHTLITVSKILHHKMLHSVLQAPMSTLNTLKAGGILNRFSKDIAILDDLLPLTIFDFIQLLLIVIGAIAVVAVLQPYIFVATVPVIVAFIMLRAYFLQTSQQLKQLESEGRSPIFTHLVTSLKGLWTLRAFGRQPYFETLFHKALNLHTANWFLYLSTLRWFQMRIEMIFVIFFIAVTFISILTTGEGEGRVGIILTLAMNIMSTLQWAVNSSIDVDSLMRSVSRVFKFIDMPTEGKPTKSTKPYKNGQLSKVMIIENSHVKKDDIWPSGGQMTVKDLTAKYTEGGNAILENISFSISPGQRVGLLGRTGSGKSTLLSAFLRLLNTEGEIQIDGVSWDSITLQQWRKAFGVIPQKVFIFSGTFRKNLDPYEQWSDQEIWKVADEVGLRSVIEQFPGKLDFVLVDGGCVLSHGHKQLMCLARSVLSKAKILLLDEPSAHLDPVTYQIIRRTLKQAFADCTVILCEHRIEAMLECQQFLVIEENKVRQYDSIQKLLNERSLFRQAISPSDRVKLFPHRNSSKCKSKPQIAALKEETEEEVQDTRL
Description: To verify the possibility that the title compounds may act as correctors in CFBE41o-, overexpressing F508del and the high sensitivity halide-sensing yellow fluorescent protein (HS-YFP) YFP-H148Q/I152L, we examined the effect of 48 h preincubation with vehicle or the TMA analogs or TMA or VX809 (Lumacaftor), as a positive control.
At the time of the assay, the correction of the F508del-CFTR function was evaluated in single-cell analysis by measuring the decrease in YFP fluorescence after the concomitant addition of extracellular iodide and the activating cocktail (20 μM forskolin and 5 μM VX770), in the presence or absence of the 10 μM CFTR inhibitor, CFTRinh-172. […] At least two derivatives show CFTR activity similar to that of the parent TMA.
The effect of TMA analogs on CFTR function was tested in CFBE41o- overexpressing F508del and the high sensitivity halide-sensing yellow fluorescent protein (HS-YFP) YFP-H148Q/I152L (a generous gift from N. Pedemonte, Gaslini Institute, Genova, Italy). YFP CF cells were seeded on round glass coverslips and preincubated for 48 h with vehicle or test compounds or VX809 or TMA. At the time of the assay, cells were washed in Dulbecco’s PBS (in mM: 137 NaCl, 2.7 KCl, 8.1 Na2HPO4, 1.5 KH2PO4, 1 CaCl2, and 0.5 MgCl2, pH 7.4) and subsequently incubated with a stimulation cocktail (20 μM forskolin and 5 μM VX770) in the presence and absence of 10 μM CFTR inhibitor, CFTRInh-172 (Sigma), for 30 min. The coverslips were then transferred on a Nikon TMD inverted microscope through a Nikon Fluor 40 objective. The signal was acquired with a Hamamatsu C2400–97 charge-coupled intensified video camera at a rate of 1 frame/3 s. The fluorescence coming from every single cell was analyzed by custom software (Spin, Vicenza, Italy). The results are presented as transformed data to obtain the percentage signal variation (Fx) relative to the time of addition of the stimulus, according to the equation: Fx = ([Ft − Fo]/Fo) × 100, where Ft and Fo are the fluorescence values at time t and at the time of stimulus addition, respectively. The assay of each sample consists of a continuous 99-s fluorescence reading with 30 s before and 69 s after injection of the iodide-rich Dulbecco’s PBS (in mM: 137 NaI, 2.7 KCl, 8.1 Na2HPO4, 1.5 KH2PO4, 1 CaCl2, and 0.5 MgCl2, pH 7.4) to reach a final iodide concentration of 50 mM [20]. The different sensitivity of HS-YFP toward iodide and chloride allows assays to be performed by measuring the transport of anions through the plasma membrane as changes in cell fluorescence. For this assay, cells expressing HS-YFP are equilibrated in a physiological chloride-rich saline solution (e.g., Dulbecco’s PBS). During fluorescence reading, cells are exposed to a high concentration of iodide. Iodide influx quenches the cell fluorescence with a rate that depends on the permeability of the cell membrane to halides, and therefore, on the activity of the anion channels or transporters.
Figure 4 Evaluation of different TMA analogs as F508del CFTR correctors in CFBE41o- YFP-F508del cells. Correction of F508del-CFTR function was assessed, in a single cell, by measuring the decrease in YFP fluorescence upon addition of extracellular iodide and with the activating cocktail, in the presence or absence of CFTR inhibitor, CFTRInh-172. Iodide influx was tested under control condition (vehicle) or after 48 h incubation with the correctors 200 nM or 1 μM VX809. The YFP fluorescence decay rate was calculated by fitting the fluorescence data with an exponential function of time courses. CFTR activity was obtained by the difference between the fluorescence decay rate of YFP in the presence and absence of CFTRInh-172. Fluorescence coming from every single cell of at least five cells per field was recorded. Each bar corresponds to the mean ± SEM of data points coming from at least three different experiments (5–10 different cells/each experiment). […]

NF-kB/DNA interactions = test system: NF-kB/DNA interactions; parameters: method as in PMID 29627723; details: cited from earlier work
F508del CFTR [2] = target: T1, F508del CFTR; parameters: method as in PMID 30022950; details: nanomolar concentrations; cited from earlier work
[3] = test system: CFTR in FRT-YFP-G551D cells; parameters: method as in PMID 30022950; details: cited from earlier work
[4] = In vivo oral pharmacokinetics in mice; details: c57BL/6 male mice
Description: The main pharmacokinetic parameters of 4-PhDMA, pANDMA, and pANDMA mesylate were evaluated in c57BL/6 male mice, using water as dispersing vehicle.
All experimental procedures involving animals were conducted in accordance with the 3R principle to minimize their pain and discomfort. […] For the PK analysis, C57Bl6 male mice (n = 3 per time point) were gavaged with selected compounds (20 mg/kg), suspended in water, or dissolved in SEDDS formulations, after an overnight fast. […] 8.0 software (GraphPad Software Inc., San Diego, CA, USA), when appropriate. If not otherwise stated, the PK data are expressed as mean ± SD. p < 0.05 was considered statistically significant.
The TMA analogs were extracted and analyzed from mouse plasma as already reported. Briefly, 100 µL of plasma were treated with 300 µL of cold acetonitrile spiked with 80 nM of internal standard (IS, 6,4′-dimethylangelicin), and then the samples were centrifuged for 10 min at 12,000× g (Hettich Mikro 120 Benchtop Centrifuge) and 25 °C. Ten microliters of the supernatant were injected into the UHPLC system.
The analytical column was a Kinetex 2.6 μm C18 Polar, 100 A, 100 × 2.1 mm (Phenomenex, Bologna, Italy), thermostated at 30 °C. The mobile phase components A and B were water and methanol, respectively, both containing 10 mM ammonium formate. The eluent flow rate was 0.25 mL/min. […] MS data were analyzed using the Mass Hunter Qualitative Analysis software (Agilent Technologies, Palo Alto, CA, USA).
Chromatographic peaks of the TMA analog were identified and integrated by considering the Extracted Ion Chromatogram (EIC) of the [M+H]^+ species selected with a window of 5 ppm and normalized by the IS. Quantification of TMA analogs was carried out by external calibration of normalized signals using a seven-point calibration curve obtained by spiking blank plasma with each TMA analog in the range of 20–3000 nM.

[5] = parameters: method as in PMID 29627723; details: cited from earlier work
HepG2 cells = test: Cytotoxicity MTT assay on HepG2 cells; details: HepG2, 24 h, highest concentration tested (50 μM)
Description: The potential toxicity of TMA analogs on hepatic tissue was assessed by evaluating the viability of HepG2 cells (ATCC, HB-8065) using the MTT assay, as previously reported [22]. Cells were maintained in DMEM complete medium (10% FBS, 1% l-glutamine and 1% PEN-STREP) and seeded in a 96-well plate (5 × 10^4 cells/mL). They were treated for 24 h with TMA analogs (concentration range from 3.125 μM to 50 μM). At the end of the treatment, cells were washed and an MTT solution (0.5 mg/mL in complete medium) was added to each well and incubated for 4 h at 37 °C. The solution was discarded, and the produced blue formazan crystals were dissolved with acidified isopropanol (2% HCl). Absorbance was measured at 570 nm using a multiplate reader (Victor Nivo, Perkin Elmer). The percentage of viable cells was calculated considering untreated cells as control.
The data shown in this figure are the results of three independent experiments, each
performed in quadruplicate.

salmon testes DNA = test: Photoadduct formation with DNA under UVA irradiation (TLC analysis); details: 15 J/cm2 UVA
Description: The total energy that struck the sample was monitored by means of a radiometer (Variocontrol, Waldmann, Villingen-Schwenningen, Germany), equipped with a Variocontrol UV Sensor (Waldmann). The radiant power emitted by the UVA lamp was about […]. The samples were maintained at room temperature during irradiation.
The test compounds were dissolved in ethanol (2 mg/mL) and salmon testes DNA (Sigma-Aldrich) was dissolved in 10 mM NaCl and 1 mM EDTA solution (1.5 × 10^−3 M). Each test solution (250 μL) was added dropwise to the DNA solution (5 mL). The mixture was irradiated with 15 J/cm2 UVA light in a glass dish for 1 h. After irradiation, the DNA was precipitated with 1 M NaCl and two volumes of cold ethanol; the precipitated DNA was collected, washed with 80% ethanol, dried, and then dissolved in water. To obtain hydrolysis, the final solution was acidified with 1 M HCl, heated at 100 °C for 1 h, neutralized with NaOH and extracted three times with chloroform. Then, all of the organic layers were collected, dried under a high vacuum, and dissolved in ethanol. The hydrolyzed mixtures were separated by thin layer chromatography (TLC; F254 plates, 0.25 mm, Merck, Darmstadt, Germany) eluting with EtOAc/EtOH (9:1). The plates were analyzed with a Mineral Light Lamp VL-4LC VILBERT-LOURMAT (Vilber, Marne-la-Vallée, France).

[6] = mouse, plasma, po, 20 mg/kg gavage, in water

## Cc1coc2c(-c3ccccc3)cc3c(C(C)C)cc(=O)oc3c12 [IPPhMA]
F508del CFTR [1]
  F508del CFTR rescue (corrector) activity: inactive

## Cc1cc(=O)oc2c1cc(-c1cccs1)c1occ(C)c12 [ThiDMA]
F508del CFTR [1]
  F508del CFTR rescue (corrector) activity: inactive

## CCc1cc2c(C(C)C)cc(=O)oc2c2c(C)coc12 [IPEMA, 4-isopropyl-6-ethyl-4′-methylangelicin]
NF-kB/DNA interactions
  inhibitory activity on NF-kB/DNA interactions: TMA-like inhibitory activity
F508del CFTR [2]
  rescue of F508del CFTR-dependent chloride efflux: significantly rescued
[3]
  potentiation activity of CFTR: maintained the potentiation activity
[4]; 20 mg/kg gavage, in water
  CL/F: 0.0633 ± 0.005 mL/h/g
[4]; water as vehicle
  oral bioavailability: very low
[4]; [6]
  Cmax: 120 ± 55.3 nM
  half-life: 9.01 ± 1.34 h
[4]; mouse, plasma, po, 20 mg/kg gavage, in water, read-out: AUC 0-inf
  AUC 0-inf: 0.395 ± 0.0987 µM·h
[4]; mouse, plasma, po, 20 mg/kg gavage, in water, read-out: Tmax
  Tmax: 1 h
[5]
  mutagenicity and DNA damaging properties: lacking mutagenicity and DNA damaging properties

## CS(=O)(=O)O.Cc1cc(=O)oc2c1cc(-c1ccc(N)cc1)c1occ(C)c12 [pANDMA mesylate]
HepG2 cells
  cell viability: greater than 75%
[4]; 20 mg/kg gavage, in water
  AUC 0-inf: 9.4026 ± 0.7422 µM·h
  CL/F: 0.0091 ± 0.0002 mL/h/g
  Cmax: 3870 ± 1070 nM
  Tmax: 0.375 ± 0.177 h
  t1/2: 1.87 ± 0.43 h
[4]; water as vehicle
  bioavailability relative to pANDMA: nearly four-times more bioavailable
F508del CFTR [1]; 48 h treatment, representative time courses
  reduction in YFP fluorescence induced by iodide influx compared to vehicle: greater reduction in YFP fluorescence

## Cc1cc(=O)oc2c1cc(C)c1occ(C)c12 [TMA, 4,6,4′-trimethylangelicin, reference compound]
Salmon testes DNA
  photoadduct formation with DNA upon UVA irradiation: showed photoadducts

## CCc1cc2c(-c3ccccc3)cc(=O)oc2c2c(C)coc12 [4-PhEMA]
F508del CFTR [1]
  F508del CFTR rescue (corrector) activity: inactive

## Cc1cc(=O)oc2c1cc(-c1cccc(N)c1)c1occ(C)c12 [mANDMA]
F508del CFTR [1]
  F508del CFTR rescue (corrector) activity: inactive

## Cc1coc2c(-c3ccccc3)cc3c(C4CC4)cc(=O)oc3c12 [CPPhMA]
F508del CFTR [1]
  F508del CFTR rescue (corrector) activity: inactive

## Cc1cc(=O)oc2c1cc(-c1ccncc1)c1occ(C)c12 [PyDMA]
F508del CFTR [1]
  F508del CFTR rescue (corrector) activity: inactive
